Test results published in PMC8875242, “Evaluation of the Potency of Anti-HIV and Anti-HCV Drugs to Inhibit P-Glycoprotein Mediated Efflux of Digoxin in Caco-2 Cell Line and Human Precision-Cut Intestinal Slices” (Pharmaceuticals, 2022).
Structures can show the parent of a compound that is named as a salt. Where two headings read alike, the source gives them in different places. Blank lines part the entries; values can stand above or below the compound they belong to.

Experiments:
ABCB1 [1] = biological target: T1, ABCB1 (Homo sapiens, UniProt P08183); experiment: Ex vivo [^3H]-digoxin accumulation in hPCIS prepared from the jejunum
Method: Ex vivo accumulation assays were performed as previously described. Directly after surgery, the resected part of the human jejunum was placed in cold (4 °C) Krebs–Henseleit buffer oxygenated with carbogen gas. The muscle layer was removed, and the remaining mucosa was cut into fragments measuring approximately 5 by 20 mm, which were then embedded in a 3% agarose solution (3% (wt/vol) in 0.9% NaCl, 37 °C). PCIS of approximately 300 µm thickness were cut using a Krumdieck tissue slicer (Alabama R&D, Munford, AL, USA). […] Both incubation steps were conducted in a humidified atmosphere of […] and 5% CO2 at 37 °C [32, 34, 35]. The accumulation of [^3H]-digoxin was stopped after 2 h of incubation by washing the slices twice in the Krebs–Henseleit cold buffer (4 °C). […] The samples were then centrifuged (10 min; 7800 g). Concentrations of [^3H]-digoxin in the supernatant samples (300 µL) were assessed after mixing them with 1.5 mL of Ultima Gold™ via scintillation counting (Tri-Carb 2900TR liquid scintillation analyzer, Packard Bioscience). The pellets obtained during centrifugation were dried overnight at 37 °C and then solubilized in 200 µL of 5 M NaOH for 24 h. Milli-Q water was then added to the samples to achieve a NaOH concentration of 1 M. The protein content was measured using a bicinchoninic acid protein kit (Thermo Fisher Scientific, Waltham, MA, USA). The measured [^3H]-digoxin concentrations were normalized against the protein content.

ABCB1 [2] = biological target: T1, ABCB1; experiment: Bidirectional transport of [^3H]-digoxin across Caco-2 monolayers
Method: Caco-2 cells were seeded at a density of 3 × 10^5 cells per insert and cultured for 21 days in a standard cultivation medium containing 1% penicillin–streptomycin. The medium was changed every other day, during which the transepithelial electrical resistance (TEER) across the cell monolayers was measured using a Millicell-ERS instrument (Millipore Corporation, Bedford, MA, USA). […] For the bidirectional permeability assay, a Hanks’ balanced salt solution buffer was used. The pH in the A compartment was adjusted to 6.5 using a methanesulfonic acid solution, while that in the B compartment was adjusted to 7.4 using a HEPES solution [34, 80]. The volumes used were 0.5 mL and 1.5 mL in compartments A and B, respectively. To improve the reproducibility of the results, the receiver compartment always contained 1% bovine serum albumin, as previously recommended. […] Samples (200 µL) were collected after 1 and 2 h from the receiver compartment; after the first collection, fresh receiver solution was added to the receiver compartment to maintain the original volume. The concentration of [^3H]-digoxin was quantified using a Tri-Carb 2900TR liquid scintillation analyzer (Packard Bioscience, Meriden, CT, USA). Its concentration in the samples collected during Caco-2 experiments was measured after adding 1 mL of Ultima Gold^TM Cocktail. A to B and B to A transport were evaluated in terms of an apparent permeability coefficient (Papp), calculated using the equation in [80, 81]. […] The efflux ratio (rPapp) was then calculated using the equation [80, 82]:rPapp = (Papp B to A)/(Papp A to B)(2)

ABCB1 [3] = biological target: T1, ABCB1; set-up: confirming the functional expression of ABCB1 in the Caco-2 cells; host or cells: Caco-2; method as in PMID 31481446; conditions: hPCIS, cited from earlier work
ABCB1 [4] = biological target: T1, ABCB1; set-up: confirming the functional expression of ABCB1 in the Caco-2 cells; host or cells: Caco-2; method as in PMID 31481446; conditions: Caco-2, cited from earlier work
ABCB1 [5] = test system: ABCB1; set-up: method as in PMID 23132334; conditions: apparent activity at 100 µM; cited from earlier work
Solubility = type: physicochemical; conditions: incubation medium, 0.1% DMSO
Method: The stock solutions were stored at −20 °C before use. The final concentration of DMSO was 0.1% in all experiments. The final concentrations of EtOH in hPCIS and Caco-2 cells were 0.03% and 0.012%, respectively.

[6] = cited from earlier work
ABCB1 [7] = conditions: suggested; cited from earlier work

T1 sequence (P08183 whole entry, the tested form may be a part): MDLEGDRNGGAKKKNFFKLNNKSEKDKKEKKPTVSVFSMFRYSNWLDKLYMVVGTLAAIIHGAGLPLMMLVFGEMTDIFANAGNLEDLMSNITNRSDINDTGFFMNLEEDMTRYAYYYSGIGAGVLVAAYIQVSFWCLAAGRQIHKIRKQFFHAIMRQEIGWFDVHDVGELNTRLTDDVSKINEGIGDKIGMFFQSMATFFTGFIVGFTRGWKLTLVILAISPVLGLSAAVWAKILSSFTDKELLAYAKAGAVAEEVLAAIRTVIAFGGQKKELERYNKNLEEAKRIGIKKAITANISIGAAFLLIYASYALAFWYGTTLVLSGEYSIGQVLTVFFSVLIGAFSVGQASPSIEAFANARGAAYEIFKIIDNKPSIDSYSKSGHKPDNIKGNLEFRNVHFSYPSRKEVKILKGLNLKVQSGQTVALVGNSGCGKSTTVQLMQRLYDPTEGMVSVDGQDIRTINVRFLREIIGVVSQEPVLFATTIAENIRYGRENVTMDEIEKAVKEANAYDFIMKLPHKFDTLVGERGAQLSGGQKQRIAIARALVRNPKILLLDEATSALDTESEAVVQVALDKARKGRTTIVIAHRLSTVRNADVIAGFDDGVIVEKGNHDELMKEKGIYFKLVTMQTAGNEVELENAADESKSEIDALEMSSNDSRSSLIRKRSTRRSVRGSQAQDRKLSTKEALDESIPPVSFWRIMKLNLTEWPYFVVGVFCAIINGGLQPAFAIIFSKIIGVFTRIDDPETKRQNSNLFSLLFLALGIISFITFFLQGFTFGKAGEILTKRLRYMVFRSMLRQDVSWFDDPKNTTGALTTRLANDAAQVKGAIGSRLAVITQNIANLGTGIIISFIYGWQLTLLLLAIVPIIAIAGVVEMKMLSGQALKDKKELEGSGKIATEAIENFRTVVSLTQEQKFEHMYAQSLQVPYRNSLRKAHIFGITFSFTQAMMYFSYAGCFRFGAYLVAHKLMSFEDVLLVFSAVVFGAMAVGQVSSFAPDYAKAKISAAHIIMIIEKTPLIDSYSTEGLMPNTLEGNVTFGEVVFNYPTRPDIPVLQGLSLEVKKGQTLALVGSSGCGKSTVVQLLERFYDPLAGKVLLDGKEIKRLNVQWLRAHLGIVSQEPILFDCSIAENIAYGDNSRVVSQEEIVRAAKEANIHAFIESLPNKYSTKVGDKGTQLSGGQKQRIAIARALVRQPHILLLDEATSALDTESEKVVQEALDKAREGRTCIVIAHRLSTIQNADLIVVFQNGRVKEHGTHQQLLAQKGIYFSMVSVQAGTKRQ

Digoxin Inhibition in human PCIS (in words) (ABCB1 [1]; compound 20 µM, hPCIS): did not inhibit | Digoxin Inhibition (bidirectional transport, in words) (ABCB1 [2]; compound 20 µM): YES
Compound: Cc1cc(/C=C/C#N)cc(C)c1Nc1ccnc(Nc2ccc(C#N)cc2)n1 [Rilpivirine, rilpivirine]
Effect on the pharmacokinetics of digoxin or tenofovir DF in vivo ([6]; dose of 25 mg/day): does not significantly affect

Digoxin Inhibition in human PCIS (in words) (ABCB1 [1]; compound 5 µM, hPCIS): did not induce any detectable inhibition | Digoxin Inhibition in human PCIS (in words) (ABCB1 [1]; compound 20 µM, hPCIS): YES | Digoxin Inhibition (bidirectional transport, in words) (ABCB1 [2]; compound 20 µM): YES
Compound: CC(C)(C)NC(=O)[C@@H]1C[C@@H]2CCCC[C@@H]2CN1C[C@@H](O)[C@H](Cc1ccccc1)NC(=O)[C@H](CC(N)=O)NC(=O)c1ccc2ccccc2n1 [Saquinavir, saquinavir]
RHD123 Inhibition in human PCIS (ABCB1 [3]; compound 20 µM): YES | RHD123 Inhibition (bidirectional transport) (ABCB1 [4]; compound 20 µM): YES

Digoxin Inhibition in human PCIS (in words) (ABCB1 [1]): no effect
Compound: CC(C)OC(=O)[C@H](C)N[P@](=O)(OC[C@H]1O[C@@H](n2ccc(=O)[nH]c2=O)[C@](C)(F)[C@@H]1O)Oc1ccccc1 [Sofosbuvir, sofosbuvir]

Digoxin Inhibition in human PCIS (in words) (ABCB1 [1]; compound 100 µM, hPCIS): did not induce any detectable inhibition
Compound: CC(C)OC(=O)OCOP(=O)(CO[C@H](C)Cn1cnc2c(N)ncnc21)OCOC(=O)OC(C)C [Tenofovir DF, tenofovir disoproxil fumarate]

Digoxin Inhibition (bidirectional transport, in words) (ABCB1 [2]; compound 5 µM): No significant effect | Solubility (in words) (Solubility): limited solubility
Compound: COC[C@H]1C[C@@H](c2ncc(-c3ccc4c(c3)COc3cc5c(ccc6nc([C@@H]7CC[C@H](C)N7C(=O)[C@@H](NC(=O)OC)C(C)C)[nH]c65)cc3-4)[nH]2)N(C(=O)[C@H](NC(=O)OC)c2ccccc2)C1 [Velpatasvir, velpatasvir]
IC50 (ABCB1 [7]): ~20.6 µM | Increase of digoxin exposure ([6]; healthy volunteers): 34%

Digoxin Inhibition in human PCIS (in words) (ABCB1 [1]; compound 100 µM, hPCIS): did not induce any detectable inhibition | Digoxin Inhibition (bidirectional transport, in words) (ABCB1 [2]; compound 100 µM): No significant effect
Compound: Cc1cn([C@H]2C[C@H](N=[N+]=[N-])[C@@H](CO)O2)c(=O)[nH]c1=O [Zidovudine, zidovudine]

Continued, compound first:

Compound: Nc1nc(NC2CC2)c2ncn([C@H]3C=C[C@@H](CO)C3)c2n1 [Abacavir, abacavir]
Digoxin Inhibition in human PCIS (in words) (ABCB1 [1]; compound 100 µM, hPCIS): did not induce any detectable inhibition | Digoxin Inhibition (bidirectional transport, in words) (ABCB1 [2]; compound 100 µM): No significant effect

Compound: COC(=O)N[C@H](C(=O)N[C@@H](Cc1ccccc1)[C@@H](O)CN(Cc1ccc(-c2ccccn2)cc1)NC(=O)[C@@H](NC(=O)OC)C(C)(C)C)C(C)(C)C [Atazanavir, atazanavir]
RHD123 Inhibition in human PCIS (ABCB1 [3]; compound 50 µM): YES | RHD123 Inhibition (bidirectional transport) (ABCB1 [4]; compound 50 µM): YES | Digoxin Inhibition in human PCIS (in words) (ABCB1 [1]; compound 20 µM, hPCIS): did not inhibit | Digoxin Inhibition in human PCIS (in words) (ABCB1 [1]; compound 50 µM, hPCIS): YES | Digoxin Inhibition (bidirectional transport, in words) (ABCB1 [2]; compound 50 µM): YES

Compound: COC(=O)N[C@H](C(=O)N1CCC[C@H]1c1nc(-c2ccc(-c3ccc(-c4c[nH]c([C@@H]5CCCN5C(=O)[C@@H](NC(=O)OC)C(C)C)n4)cc3)cc2)c[nH]1)C(C)C [Daclatasvir, daclatasvir]
RHD123 Inhibition (bidirectional transport) (ABCB1 [4]; compound 20 µM): YES | Digoxin Inhibition in human PCIS (in words) (ABCB1 [1]; compound 20 µM, hPCIS): YES

Compound: CC(C)CN(C[C@@H](O)[C@H](Cc1ccccc1)NC(=O)O[C@H]1CO[C@H]2OCC[C@H]21)S(=O)(=O)c1ccc(N)cc1 [Darunavir, darunavir]
Digoxin Inhibition in human PCIS (in words) (ABCB1 [1]; compound 50 µM, hPCIS): did not inhibit

Compound: C[C@H]1O[C@@H](O[C@H]2[C@@H](O)C[C@H](O[C@H]3[C@@H](O)C[C@H](O[C@H]4CC[C@@]5(C)[C@H](CC[C@@H]6[C@@H]5C[C@@H](O)[C@]5(C)[C@@H](C7=CC(=O)OC7)CC[C@]65O)C4)O[C@@H]3C)O[C@@H]2C)C[C@H](O)[C@@H]1O [Digoxin, digoxin]
efflux ratio at 2 h, 6 nM (ABCB1 [2]; human): 9.53 ± 2.22

Compound: C[C@@H]1CCO[C@H]2Cn3cc(C(=O)NCc4ccc(F)cc4F)c(=O)c(O)c3C(=O)N12 [Dolutegravir, dolutegravir]
Inhibition of digoxin transport in MDCK-ABCB1 cells (ABCB1 [5]): weak inhibitor | Digoxin Inhibition in human PCIS (in words) (ABCB1 [1]; compound 10 µM, hPCIS): did not induce any detectable inhibition | Digoxin Inhibition (bidirectional transport, in words) (ABCB1 [2]; compound 10 µM): No significant effect | Solubility (in words) (Solubility): limited solubility

Compound: COC(=O)N[C@H](C(=O)N1CCC[C@H]1c1nc(-c2ccc3c(c2)O[C@@H](c2ccccc2)n2c-3cc3cc(-c4c[nH]c([C@@H]5CCCN5C(=O)[C@@H](NC(=O)OC)C(C)C)n4)ccc32)c[nH]1)C(C)C [Elbasvir, elbasvir]
Increase in plasma AUC (intestinal ABCB1 inhibition) ([6]; humans): 11% | Digoxin Inhibition in human PCIS (in words) (ABCB1 [1]; compound 5 µM, hPCIS): no inhibition | Solubility (in words) (Solubility): low solubility

Compound: Cc1cc(C#N)cc(C)c1Oc1nc(Nc2ccc(C#N)cc2)nc(N)c1Br [Etravirine, etravirine]
Digoxin Inhibition in human PCIS (in words) (ABCB1 [1]; compound 20 µM, hPCIS): did not inhibit | Digoxin Inhibition (bidirectional transport, in words) (ABCB1 [2]; compound 20 µM): YES | Solubility (in words) (Solubility): low solubility

Compound: C=C[C@@H]1C[C@]1(NC(=O)[C@@H]1C[C@@H]2CN1C(=O)[C@H](C(C)(C)C)NC(=O)O[C@@H]1C[C@H]1CCCCCc1nc3ccc(OC)cc3nc1O2)C(=O)NS(=O)(=O)C1CC1.O [Grazoprevir, grazoprevir]
Digoxin Inhibition in human PCIS (in words) (ABCB1 [1]): increased [^3H]-digoxin uptake

Compound: COC(=O)N[C@H](C(=O)N1CC2(CC2)C[C@H]1c1ncc(-c2ccc3c(c2)C(F)(F)c2cc(-c4ccc5nc([C@@H]6[C@H]7CC[C@H](C7)N6C(=O)[C@@H](NC(=O)OC)C(C)C)[nH]c5c4)ccc2-3)[nH]1)C(C)C [Ledipasvir, ledipasvir]
RHD123 Inhibition (bidirectional transport) (ABCB1 [4]; compound 50 µM): YES | Digoxin Inhibition in human PCIS (in words) (ABCB1 [1]; compound 20 µM, hPCIS): no inhibition | Digoxin Inhibition in human PCIS (in words) (ABCB1 [1]; compound 50 µM, hPCIS): no inhibition | Digoxin Inhibition (bidirectional transport, in words) (ABCB1 [2]; compound 50 µM): YES | Solubility (in words) (Solubility): low solubility

Compound: Cc1cccc(C)c1OCC(=O)N[C@@H](Cc1ccccc1)[C@@H](O)C[C@H](Cc1ccccc1)NC(=O)[C@H](C(C)C)N1CCCNC1=O [Lopinavir, lopinavir]
RHD123 Inhibition in human PCIS (ABCB1 [3]; compound 50 µM): YES | Digoxin Inhibition in human PCIS (in words) (ABCB1 [1]; compound 20 µM, hPCIS): did not induce any detectable inhibition | Digoxin Inhibition in human PCIS (in words) (ABCB1 [1]; compound 50 µM, hPCIS): YES

Compound: maraviroc
RHD123 Inhibition (bidirectional transport) (ABCB1 [4]; compound 100 µM): YES | Digoxin Inhibition in human PCIS (in words) (ABCB1 [1]; compound 100 µM, hPCIS): did not induce any detectable inhibition | Digoxin Inhibition (bidirectional transport, in words) (ABCB1 [2]; compound 100 µM): No significant effect
